Laboratory results from patent US10344330B2, “Glatiramer acetate response biomarker mRNA potency assay” (Mylan Inc., priority 2013, dated 2019).

Key:
[1] = tested on: mouse IL-4 mRNA in primary LN cells; test: Mouse IL-4 mRNA in LN cells of immunized SJL/J mice stimulated with Copaxone and GMA lots, normalized to Actβ or GAPDH (Example V); assay type: cell-based
Protocol: A real-time polymerase chain reaction method was used to measure the expression of cytokine mRNA in GA-stimulated LN cells from GA-immunized SJL/J mice. Normalization of expression with two different housekeeping genes, GAPDH and β-actin, was tested.
Each group consisted of six female SJL/J mice immunized by injection in all four footpads with a total dose of 250 μg of one lot of GA, or mannitol and no GA. Three Copaxone batches and three GMA batches were used to immunize the mice. CFA was included in both GA and mannitol immunizations. Ten days following immunization, LN cell samples isolated from the immunized mice were each stimulated with a concentration of a Copaxone lot and a GMA lot. A positive control of 2.5 μg/mL ConA treated LN cells and a negative control of 10 μg/mL MBP treated cells were included in each group.
Therefore, the Q-PCR analysis was repeated on the samples, measuring levels of IL-2, IL-4, IL-5, and IL-13, using both GAPDH and β-actin as reference gene.

IFN-γ mRNA in LN cells = test: IFN-γ mRNA by real-time PCR in LN cells of GA-immunized CD-1, BALB/cByJ, SJL/J mice (Example III); assay type: cell-based, mouse; conditions: 6 hours
Protocol: On Day 0, mice were immunized with 250 μg GA (GMA, Mylan Pharmaceuticals, Inc.) and CFA. The GA solution (20 mg/mL) was diluted with Dulbecco's Phosphate-Buffered Saline to 5 mg/mL. The dosing formulation consisted of equal volumes of the diluted GA solution (5 mg/mL) and CFA solution, mixed until well-emulsified. Animals were weighed and allocated to groups. Animals were dosed by injection into four footpads. The injection volume per animal was 0.1 mL (about 10 μL into each front footpad, and 40 μL into each hind footpad).
Immunized animals were euthanized by cervical dislocation on Day 10 post-immunization. Lymph node cells were isolated from animals and treated with Myelin Basic Protein (MBP, a negative control), Concanavalin A (ConA, a positive control) or GA as shown in Table 16. Lymph nodes in the axillary and popliteal regions were removed aseptically in a purifier clean bench. […] The LN were then washed 3 times with −5 mL of RPMI medium, and isolated by pressing the LN with a syringe plunger. […] The cell suspension was centrifuged at about 200×g for 10 minutes at about 4° C. and re-suspended in ice cold enriched DCCM-1 medium. Cells were seeded in 96-well tissue culture plates.
LN cells isolated from GA-immunized animals were stimulated with GA (GMA, Mylan Pharmaceuticals, Inc.) at concentrations as indicated in Tables 16 and 17. A positive control was prepared by treating LN cells with 2.5 μg/mL concavalin A (ConA, a non-specific T cell stimulant). Myelin basic protein (MBP, 10 μg/mL) and enriched DCCM-1 medium served as negative controls. The cells from all groups each were stimulated with the same GA lot. Each reaction was set up in triplicate.
After incubation at about 37° C. in a humidified CO2 incubator for 6 hours, the cells were lysed for total RNA isolation. Total RNA was isolated from treated LN cells using SV 96 Total RNA Isolation System according to the manufacturer's protocol (Promega, Cat. #Z3500). Cells were washed once with Phosphate Buffered Saline (PBS) and lysed in RNA lysis buffer. The lysate was transferred to wells of the SV 96 binding plate. Samples were washed with RNA wash solution and treated with DNase. Total RNA was eluted with nuclease-free water from the binding plate.
After the reverse transcriptase reaction was completed, cDNA samples were used directly for real-time PCR to measure the response biomarker mRNA levels produced by the stimulated cells. […] All probes for target genes contained FAM dye, and probes for the internal control contained VIC®/MGB dye. Samples will be prepared and run in 96-well plates using a Real-Time PCR system (7500, Life Technologies). This system allows direct detection of PCR-product formation by measuring the increase in fluorescent emission continuously during the PCR reaction. A relative quantitation method was used to analyze changes in mouse IL-2, IL-4, IL-5, IL-10, IL-13, IFN-γ and TNF-α expression in GA-treated samples relative to the untreated control (enriched DCCM-1 treated) samples. The Real-Time PCR program was:
The levels of mouse cytokine amplicons (IL-2, IL-4, IL-5, IL-10, IL-13, mIFN-γ and TNF-α) were normalized to internal probe levels (GAPDH) from the same samples. The following equations were used to calculate the relative increase in response to GA stimulation compared to the control sample: ΔCT=CT_target−CT_reference ΔΔCT=−ΔCT_Treated−CT_VC

[2] = Group 1C: CD-1, GA-immunized, stimulation 10 μg/mL
[3] = Group 2C: BALB/cByJ, GA-immunized, stimulation 10 μg/mL
[4] = Group 3C: SJL/J, GA-immunized, stimulation 10 μg/mL

L-glutamic acid polymer with L-alanine, L-lysine and L-tyrosine, acetate (salt) [GA]
IL-4 cross-potency ([1]; Copaxone: C/A, GMA: B/D, 5 μg/mL): 103%
IFN-γ mRNA Expression (IFN-γ mRNA in LN cells; Group 1C: CD-1, GA-immunized, stimulation 0.3 μg/mL): 1.6 fold change vs control
IFN-γ mRNA Expression (IFN-γ mRNA in LN cells; Group 1C: CD-1, GA-immunized, stimulation 1 μg/mL): 2.8 fold change vs control
IFN-γ mRNA Expression (IFN-γ mRNA in LN cells; Group 1C: CD-1, GA-immunized, stimulation 3 μg/mL): 4.3 fold change vs control
IFN-γ mRNA Expression (IFN-γ mRNA in LN cells; [2]): 3.1 fold change vs control
IFN-γ mRNA Expression (IFN-γ mRNA in LN cells; Group 2C: BALB/cByJ, GA-immunized, stimulation 0.3 μg/mL): 1.2 fold change vs control
IFN-γ mRNA Expression (IFN-γ mRNA in LN cells; Group 2C: BALB/cByJ, GA-immunized, stimulation 1 μg/mL): 1.7 fold change vs control
IFN-γ mRNA Expression (IFN-γ mRNA in LN cells; Group 2C: BALB/cByJ, GA-immunized, stimulation 3 μg/mL): 2.8 fold change vs control
IFN-γ mRNA Expression (IFN-γ mRNA in LN cells; [3]): 2.2 fold change vs control
IFN-γ mRNA Expression (IFN-γ mRNA in LN cells; Group 3C: SJL/J, GA-immunized, stimulation 0.3 μg/mL): 0.9 fold change vs control
IFN-γ mRNA Expression (IFN-γ mRNA in LN cells; Group 3C: SJL/J, GA-immunized, stimulation 1 μg/mL): 1.7 fold change vs control
IFN-γ mRNA Expression (IFN-γ mRNA in LN cells; Group 3C: SJL/J, GA-immunized, stimulation 3 μg/mL): 2.5 fold change vs control
IFN-γ mRNA Expression (IFN-γ mRNA in LN cells; [4]): 2.2 fold change vs control

Concanavalin A [ConA, reference compound]
IL-4 mRNA Fold Change ([1]; Group 3 (mice immunized with GA-M2 Mylan GMA), 2.5 μg/mL, normalized to Actβ): 43.6 fold
IL-4 mRNA Fold Change ([1]; Group 3 (mice immunized with GA-M2 Mylan GMA), 2.5 μg/mL, normalized to GAPDH): 87.9 fold
IL-4 mRNA Fold Change ([1]; Group 4 (mice immunized with GA-C2 Copaxone), 2.5 μg/mL, normalized to Actβ): 48.3 fold
IL-4 mRNA Fold Change ([1]; Group 4 (mice immunized with GA-C2 Copaxone), 2.5 μg/mL, normalized to GAPDH): 84.8 fold
IFN-γ mRNA Expression (IFN-γ mRNA in LN cells; Group 1C: CD-1, GA-immunized, stimulation 2.5 μg/mL): 4.0 fold change vs control
IFN-γ mRNA Expression (IFN-γ mRNA in LN cells; Group 2C: BALB/cByJ, GA-immunized, stimulation 2.5 μg/mL): 1.4 fold change vs control
IFN-γ mRNA Expression (IFN-γ mRNA in LN cells; Group 3C: SJL/J, GA-immunized, stimulation 2.5 μg/mL): 1.4 fold change vs control

B1: MBP: myelin basic protein, a negative control (protein, UniProt P02686 1-304, looked up)
Myelin basic protein: MGNHAGKRELNAEKASTNSETNRGESEKKRNLGELSRTTSEDNEVFGEADANQNNGTSSQDTAVTDSKRTADPKNAWQDAHPADPGSRPHLIRLFSRDAPGREDNTFKDRPSESDELQTIQEDSAATSESLDVMASQKRPSQRHGSKYLATASTMDHARHGFLPRHRDTGILDSIGRFFGGDRGAPKRGSGKDSHHPARTAHYGSLPQKSHGRTQDENPVVHFFKNIVTPRTPPPSQGKGRGLSLSRFSWGAEGQRPGFGYGGRASDYKSAHKGFKGVDAQGTLSKIFKLGGRDSRSGSPMARR
IL-4 mRNA Fold Change ([1]; Group 3 (mice immunized with GA-M2 Mylan GMA), 10 μg/mL, normalized to Actβ): 0.8 fold
IL-4 mRNA Fold Change ([1]; Group 3 (mice immunized with GA-M2 Mylan GMA), 10 μg/mL, normalized to GAPDH): 0.7 fold
IL-4 mRNA Fold Change ([1]; Group 4 (mice immunized with GA-C2 Copaxone), 10 μg/mL, normalized to Actβ): 2.4 fold
IL-4 mRNA Fold Change ([1]; Group 4 (mice immunized with GA-C2 Copaxone), 10 μg/mL, normalized to GAPDH): 1.3 fold
IFN-γ mRNA Expression (IFN-γ mRNA in LN cells; [2]): 0.8 fold change vs control
IFN-γ mRNA Expression (IFN-γ mRNA in LN cells; [3]): 0.2 fold change vs control
IFN-γ mRNA Expression (IFN-γ mRNA in LN cells; [4]): 0.2 fold change vs control
